The test system of one test is S. aureus. The test is described as follows: MIC against S. aureus strains. It is filed as cell-based. The settings on record: S. aureus ATCC 29213, 24 h; for MIC: Staphylococcus aureus, ATCC29213, 24 h, read-out: MIC (μg/mL) 24 h.
A further test deals with C. difficile ATCC 43255. In words: Determination of minimal-inhibitory concentrations (microdilution), C. difficile ATCC 43255. Type of test: cell-based, Clostridioides difficile. The settings on record: for MIC: Clostridioides difficile.
The next test relates to C. difficile strains. In words: MIC (microdilution) against panel of 101 C. difficile strains. Type of test: cell-based, Clostridioides difficile. Conditions: Clostridioides difficile.
[1] abbreviates: C. difficile ATCC 43255, 48-h incubation.
[2] abbreviates: ATCC43255, 24 h, C. difficile ATCC 43255, 24 h, read-out: MIC (μg/mL) 24 h.
The mark [3] stands for this setting: ATCC43255, 48 h, C. difficile ATCC 43255, 48-h incubation, read-out: MIC (μg/mL) 48 h.

In brackets after ≈: the same amount, converted by molar mass. Read-outs that look alike come from different tables or passages of the source. Where only a bound is given, the exact number is not on record here.

Regarding `O=C(Nc1c[nH]nc1-c1nc(-c2ccc(Oc3ccc(C(F)(F)F)cc3)cc2)no1)c1ccccn1` [Compound 43], the “MIC (μg/mL) 24 h” value against S. aureus was greater than 128 µg/mL; in the test with C. difficile ATCC 43255 (C. difficile ATCC 43255, 24 h) it was greater than 128 µg/mL. For the same compound, the “MIC (μg/mL) 48 h” value in the test on C. difficile ATCC 43255 (setting [1]) was greater than 128 µg/mL.
Consider `CS(=O)(=O)Nc1ccc(-c2nc(-c3ccc(OC4CCCC4)cc3)no2)cc1` [Compound 52, N-(4-(3-(4-(Cyclopentyloxy)phenyl)-1,2,4-oxadiazol-5-yl)phenyl) methanesulfonamide], for which the MIC with S. aureus and with C. difficile ATCC 43255 (setting [2]) was greater than 128 µg/mL each time. Further, the “MIC (μg/mL) 48 h” value in the test with C. difficile ATCC 43255 (setting [1]) is greater than 128 µg/mL.
For `Nc1ccc(-c2nc(-c3ccc(OC4CCCC4)cc3)no2)cc1` [Compound 51, 4-(3-(4-(Cyclopentyloxy)phenyl)-1,2,4-oxadiazol-5-yl) aniline], the MIC in the test with S. aureus was found to be 4 µg/mL (≈ 12.4 µM); in the test with C. difficile ATCC 43255 (setting [2]), 2 µg/mL (≈ 6.22 µM). Further, in the test with C. difficile ATCC 43255 (setting [1]), the “MIC (μg/mL) 48 h” value was greater than 128 µg/mL.
In the case of `COc1ccc2oc3ccc(-c4noc(-c5n[nH]cc5[N+](=O)[O-])n4)cc3c2c1` [Compound 119, 3-(8-Methoxydibenzo[b,d]furan-2-yl)-5-(4-nitro-1H-pyrazol-3-yl)-1,2,4-oxadiazole], the MIC was found to be 32 µg/mL (≈ 84.8 µM) with S. aureus, 2 µg/mL (≈ 5.3 µM) in the test with C. difficile ATCC 43255 (setting [2]) and 64 µg/mL (≈ 170 µM) in the test with C. difficile ATCC 43255 (setting [3]).
As for `c1cc(-c2noc(-c3ccc4c(c3)CCN4)n2)ccc1OC1CCCC1` [Compound 54, 3-(4-(Cyclopentyloxy)phenyl)-5-(indolin-5-yl)-1,2,4-oxadiazole], the MIC is 2 mg/L (≈ 5.76 µM) with C. difficile strains (ATCC43598, strain ATCC43598); 4 mg/L (≈ 11.5 µM) against C. difficile strains (BAA1801, strain BAA-1801); 2 mg/L (≈ 5.76 µM) in the test on C. difficile strains (BAA1803, strain BAA-1803); 2 mg/L (≈ 5.76 µM) against C. difficile strains (BAA1804, strain BAA-1804); 2 mg/L (≈ 5.76 µM) in the test on C. difficile strains (BAA1812, strain BAA-1812); 4 mg/L (≈ 11.5 µM) in the test on C. difficile strains (BAA1814, strain BAA-1814). Also, the MIC against C. difficile strains (BAA1870, strain BAA-1870) amounted to 4 mg/L (≈ 11.5 µM); against C. difficile strains (strain HM-88), 4 mg/L (≈ 11.5 µM); in the test with C. difficile strains (strain HM-89), 8 mg/L (≈ 23 µM); in the test on C. difficile strains (strain HM-745), 2 mg/L (≈ 5.76 µM); against C. difficile strains (strain HM-746), 2 mg/L (≈ 5.76 µM); with C. difficile strains (strain HM-747) it was 1 mg/L (≈ 2.88 µM). The MIC with C. difficile strains (strain NR49292) was 8 mg/L (≈ 23 µM); with C. difficile strains (strain NR49294), 2 mg/L (≈ 5.76 µM); against C. difficile strains (strain NR49302), 4 mg/L (≈ 11.5 µM); with C. difficile strains (strain NR49305), 8 mg/L (≈ 23 µM); in the test with C. difficile strains (strain NR49310) it was 4 mg/L (≈ 11.5 µM); in the test with C. difficile strains (strain NR49318), 8 mg/L (≈ 23 µM). The MIC against C. difficile strains (strain NR-13427) worked out at 8 mg/L (≈ 23 µM); against C. difficile strains (strain NR-13428), 8 mg/L (≈ 23 µM); with C. difficile strains (strain NR-13429), 4 mg/L (≈ 11.5 µM); in the test on C. difficile strains (strain NR-13430), 8 mg/L (≈ 23 µM); in the test with C. difficile strains (strain NR-13431), 4 mg/L (≈ 11.5 µM); in the test with C. difficile strains (strain NR-13433) it was 4 mg/L (≈ 11.5 µM). In addition, the MIC in the test on C. difficile strains (strain NR-13434) came to 4 mg/L (≈ 11.5 µM); with C. difficile strains (strain NR-13435), 4 mg/L (≈ 11.5 µM); in the test with C. difficile strains (strain NR-13436), 8 mg/L (≈ 23 µM); in the test on C. difficile strains (strain NR-13437), 8 mg/L (≈ 23 µM); against C. difficile strains (strain NR-13438), 8 mg/L (≈ 23 µM); in the test on C. difficile strains (strain NR-13553), 4 mg/L (≈ 11.5 µM). Besides, the MIC against C. difficile strains (strain NR-32882) was found to be 4 mg/L (≈ 11.5 µM); against C. difficile strains (strain NR-32883), 4 mg/L (≈ 11.5 µM); with C. difficile strains (strain NR-32884), 4 mg/L (≈ 11.5 µM); against C. difficile strains (strain NR-32885), 8 mg/L (≈ 23 µM); in the test on C. difficile strains (strain NR-32886) it was 8 mg/L (≈ 23 µM); against C. difficile strains (strain NR-32887) it was 4 mg/L (≈ 11.5 µM). Besides, the MIC against C. difficile strains (strain NR-32888) is 8 mg/L (≈ 23 µM); against C. difficile strains (strain NR-32889), 4 mg/L (≈ 11.5 µM); in the test on C. difficile strains (strain NR-32890), 4 mg/L (≈ 11.5 µM); in the test on C. difficile strains (strain NR-32891), 4 mg/L (≈ 11.5 µM); against C. difficile strains (strain NR-32892) it was 4 mg/L (≈ 11.5 µM); in the test on C. difficile strains (strain NR-32895) it was 8 mg/L (≈ 23 µM). The MIC with C. difficile strains (strain NR-32896) is 4 mg/L (≈ 11.5 µM); with C. difficile strains (strain NR-32897) it was 4 mg/L (≈ 11.5 µM); against C. difficile strains (strain NR-32900) it was 4 mg/L (≈ 11.5 µM); in the test with C. difficile strains (strain NR-32903), 2 mg/L (≈ 5.76 µM); in the test with C. difficile strains (strain NR-32904), 4 mg/L (≈ 11.5 µM); against C. difficile strains (strain NR-49277), 4 mg/L (≈ 11.5 µM). In addition, the MIC with C. difficile strains (strain NR-49278) amounted to 4 mg/L (≈ 11.5 µM); in the test on C. difficile strains (strain NR-49279), 4 mg/L (≈ 11.5 µM); against C. difficile strains (strain NR-49280) it was 2 mg/L (≈ 5.76 µM); against C. difficile strains (strain NR-49281), 4 mg/L (≈ 11.5 µM); with C. difficile strains (strain NR-49282), 2 mg/L (≈ 5.76 µM); with C. difficile strains (strain NR-49283), 2 mg/L (≈ 5.76 µM). The MIC was determined as 4 mg/L (≈ 11.5 µM) with C. difficile strains (strain NR-49284); 4 mg/L (≈ 11.5 µM) with C. difficile strains (strain NR-49285); 2 mg/L (≈ 5.76 µM) against C. difficile strains (strain NR-49286); 4 mg/L (≈ 11.5 µM) with C. difficile strains (strain NR-49287); 4 mg/L (≈ 11.5 µM) against C. difficile strains (strain NR-49288); 4 mg/L (≈ 11.5 µM) in the test with C. difficile strains (strain NR-49289). For the same compound, the MIC was 4 mg/L (≈ 11.5 µM) with C. difficile strains (strain NR-49290); 4 mg/L (≈ 11.5 µM) against C. difficile strains (strain NR-49291); 2 mg/L (≈ 5.76 µM) against C. difficile strains (strain NR-49293); 4 mg/L (≈ 11.5 µM) against C. difficile strains (strain NR-49295); 8 mg/L (≈ 23 µM) in the test on C. difficile strains (strain NR-49296); 4 mg/L (≈ 11.5 µM) with C. difficile strains (strain NR-49297). The MIC in the test with C. difficile strains (strain NR-49298) is 8 mg/L (≈ 23 µM); against C. difficile strains (strain NR-49299), 8 mg/L (≈ 23 µM); with C. difficile strains (strain NR-49300), 8 mg/L (≈ 23 µM); against C. difficile strains (strain NR-49301) it was 8 mg/L (≈ 23 µM); in the test with C. difficile strains (strain NR-49303), 4 mg/L (≈ 11.5 µM); against C. difficile strains (strain NR-49304) it was 8 mg/L (≈ 23 µM). The MIC against C. difficile strains (strain NR-49306) was 4 mg/L (≈ 11.5 µM); against C. difficile strains (strain NR-49307) it was 2 mg/L (≈ 5.76 µM); against C. difficile strains (strain NR-49308), 2 mg/L (≈ 5.76 µM); against C. difficile strains (strain NR-49309) it was 8 mg/L (≈ 23 µM); against C. difficile strains (strain NR-49311), 4 mg/L (≈ 11.5 µM); against C. difficile strains (strain NR-49312), 4 mg/L (≈ 11.5 µM). In addition, the MIC turned out to be 4 mg/L (≈ 11.5 µM) with C. difficile strains (strain NR-49313); 4 mg/L (≈ 11.5 µM) in the test with C. difficile strains (strain NR-49314); 2 mg/L (≈ 5.76 µM) against C. difficile strains (strain NR-49315); 4 mg/L (≈ 11.5 µM) in the test on C. difficile strains (strain NR-49316); 2 mg/L (≈ 5.76 µM) against C. difficile strains (strain NR-49317); 4 mg/L (≈ 11.5 µM) in the test with C. difficile strains (strain NR-49319). Also, the MIC against C. difficile strains (strain NR-49320) worked out at 4 mg/L (≈ 11.5 µM); in the test on C. difficile strains (strain NR-49321), 4 mg/L (≈ 11.5 µM); in the test with C. difficile strains (strain NR-49323), 4 mg/L (≈ 11.5 µM); against C. difficile strains (strain NR-49324), 8 mg/L (≈ 23 µM); with C. difficile strains (strain NR-49325), 4 mg/L (≈ 11.5 µM); against C. difficile strains (strain NR-49326), 8 mg/L (≈ 23 µM). Besides, the MIC with C. difficile strains (strain NR-49327) came out at 8 mg/L (≈ 23 µM); against C. difficile strains (strain NR-49328), 8 mg/L (≈ 23 µM); with C. difficile strains (strain NR-49329), 8 mg/L (≈ 23 µM); in the test with C. difficile strains (strain RMA23691), 2 mg/L (≈ 5.76 µM); with C. difficile strains (strain RMA23828), 8 mg/L (≈ 23 µM); in the test with C. difficile strains (strain RMA24531), 2 mg/L (≈ 5.76 µM). Besides, the MIC in the test on C. difficile strains (strain RMA24923) amounted to 2 mg/L (≈ 5.76 µM); in the test on C. difficile strains (strain RMA26675), 8 mg/L (≈ 23 µM); in the test on C. difficile strains (strain RMA27081) it was 8 mg/L (≈ 23 µM); in the test with C. difficile strains (strain RMA27173), 4 mg/L (≈ 11.5 µM); in the test on C. difficile ATCC 43255 (setting [2]), 4 µg/mL (≈ 11.5 µM); in the test with C. difficile ATCC 43255 (setting [3]) it was 8 µg/mL (≈ 23 µM). In addition, the MIC with C. difficile ATCC 43255 (ATCC43255, strain ATCC43255, read-out: MIC) was determined as 2 µg/mL (≈ 5.76 µM). Further, the MIC50 with C. difficile strains (C. difficile strains of Table 4, read-out: MIC50) was 4 mg/L (≈ 11.5 µM). Besides, in the test with C. difficile strains (C. difficile strains of Table 4, read-out: MIC90), the MIC90 turned out to be 8 mg/L (≈ 23 µM).

These data come from US20260125371A1, “METHOD FOR INHIBITING CLOSTRIDIOIDES DIFFICILE SPORE GERMINATION” (UNIVERSITY OF NOTRE DAME DU LAC, priority 2022, published 2026).
